The values below come from US20250346571A1, “BICYCLIC DERIVATIVE PARP INHIBITOR AND USE THEREOF” (XIZANG HAISCO PHARMACEUTICAL CO., LTD., priority 2022, published 2025).

The IC50 is the concentration that gives 50% inhibition. The term AUC(0-t) denotes exposure summed from dosing to a finite time, without extrapolation to infinity. Low values mean low exposure, high ones high exposure. Usually clearance stands for the volume of plasma or blood freed of the substance per unit of time. A high value points to a high capacity for elimination. As usually defined, the bioavailability is the share of a dose that reaches the circulation, judged against a reference dose that is usually intravenous.

Data set [1] concerns the target PARP-1 enzyme (Homo sapiens (Human), UniProt P09874). In words: PARP-1 enzyme activity test (chemical fluorescence detection kit, BPS Bioscience). In kind it is biochemical. The procedure: PARP-1 chemical fluorescence detection kit was purchased from BPS Bioscience. The histone solution in the kit was diluted 5× with 1×PBS, and 25 μL of the diluted histone solution was added to a microwell plate and incubated overnight at 4° C. After the incubation, the plate was washed three times with PBST (0.05% Tween-20). 100 μL of the blocking solution was added to the microwell plate and incubated at 25° C. for 90 minutes. After the incubation was completed, the plate was washed three times with PBST. 2.5 μL of compounds at different concentrations diluted in test buffer and 12.5 μL of substrate mixed solution (1.25 μL 10×PARP test buffer; 1.25 μL 10×PARP test mixed solution; 2.5 μL Activated DNA, 7.5 μL double-distilled water) were added to the microwell plate. The PARP-1 enzyme was diluted to 2 ng/μL, […] was added to the microwell plate, and the reaction system was incubated at 25° C. for 60 minutes.
After the incubation was completed, the plate was washed three times with PBST. Streptavidin-HRP was diluted 50× with a blocking solution, and 25 μL of the diluent was added to the microwell plate and incubated at 25° C. for 30 minutes. After the incubation, the plate was washed three times with PBST. ELISA ECL substrate A and substrate B were uniformly mixed at a ratio of 1:1 (v/v), 50 μL of the mixture was added to the microwell plate, and the chemiluminescence value was read.
The inhibition rate was calculated according to formula 1, where RLUsample was the readout of the compound well, RLUmax was the readout of the solvent control well, and RLUmin was the readout of the control well without the PARP-1 enzyme. Curve fitting was performed by four parameters (log(inhibitor) vs. response—Variable slope) using GraphPad Prism software, and the ICso value was calculated.
Inhibition %=(1−(RLUsample−RLUmin)/(RLUmax−RLUmin))×100% (formula 1)

Data set [2] has as its system MDA-MB-436 cells. In words: MDA-MB-436 cell activity test (CellTiter-Glo, 7 days). The settings on record: for IC50: 7 days incubation; for inhibition at 10 µM: read-out: Max inh. % 10 μM. The data set is classed as cell-based. The procedure:
Breast tumor cells MDA-MB-436 were purchased from ATCC, the culture medium was Leibovitz's L-15+10% FBS, and the cells were cultured in a CO2-free incubator at 37° C. On day 1, the cells in the exponential growth phase were collected, and the cell suspension was adjusted to 4000 cells/135 μL with the culture medium. 135 μL of the cell suspension was added to each well of a 96-well cell culture plate and incubated overnight. On day 2, compounds at different concentrations were added, and the plate was placed in the incubator and incubated for 7 days. After the incubation was completed, according to operation instructions for a CellTiter-Glo kit (Promega, G7573), 75 μL of CTG solution, which was already pre-melted and equilibrated to room temperature, was added to each well, and the mixture was uniformly mixed for 2 min using a microplate shaker. The plate was placed at room temperature for 10 min, and then […] were measured using an Envision2104 plate reader (PerkinElmer). The inhibition rate was calculated using formula (1), where RLUcompound was the readout of the drug treated group, RLUcontrol was the average value of the vehicle control group, and RLUblank was the average value of the cell-free well. The IC50 value was calculated using GraphPad Prism software
(ATP-based viability assays read luminescence as a measure of living cells.)

A short description of data set [3]: Pharmacokinetic test in rats. In kind it is in vivo, SD rats. The settings on record: for pharmacokinetic characteristics in rats: conclusion in words; for Kp at 24 h / AUC(0-t) / clearance / Vd / bioavailability: male, SD, rat, rats; for Kp at 24 h: brain/plasma, intravenous, 2.5 mg/kg, 24 h after administration, read-out: Brain/Plasma Ratio (24 h); for AUC(0-t) / clearance / Vd / bioavailability: plasma; for Vd: read-out: Vdss. The procedure: 3.1 Experimental animal: male SD rats, about 220 g, 6-8 weeks old, 6 rats/compound, purchased from Chengdu Ddossy Experimental Animals Co., Ltd.
3.2 Experimental design: on the day of the experiment, 30 SD rats were randomly grouped according to their body weights. The animals were fasted with water available for 12 to 14 h one day before the administration and were fed 4 h after the administration.
(§1) Before and after the administration, 0.15 ml of blood was taken from the orbit of the animals under isoflurane anesthesia and placed in an EDTAK2 centrifuge tube. The blood was centrifuged at 5000 rpm and 4° C. for 10 min to collect plasma. The blood collection time points for the intravenous administration group and intragastric administration group were 0, 5 min, 15 min, 30 min, 1 h, 2 h, 4 h, 6 h, 8 h and 24 h. The brain tissues were collected 24 hours after administration, rinsed with cold physiological saline to remove the residual blood on the surface, drained out and then homogenized. Before analysis and detection, all samples were stored at −80° C. The samples were analyzed quantitatively by LC-MS/MS.

The nature of data set [4]: Pharmacokinetic test in mice. The data set is classed as in vivo, Balb/c mice. The settings on record: for pharmacokinetic characteristics in mice: conclusion in words; for AUC(0-t) / clearance / Vd / bioavailability / Kp at 24 h: male, Balb/c, mouse, mice; for AUC(0-t) / clearance / Vd / bioavailability: plasma; for Vd: read-out: Vdss; for Kp at 24 h: brain/plasma, 24 h after administration, read-out: Brain/Plasma Ratio (24 h). The procedure: 4.1 Experimental animal: male Balb/c mice, 20-25 g, 12 mice/compound, purchased from Chengdu Ddossy Experimental Animals Co., Ltd.
4.2 Experimental design: on the day of the test, 60 Balb/c mice were randomly grouped according to their body weights. The animals were fasted with water available for 12 to 14 h one day before the administration and were fed 4 h after the administration.
as §1, with “administration, 0.06 mL ofblood” for “administration, 0.15 ml of blood”, “8 h,” for “8 h”, “collected at 30 min, 2 h and 24 h after administration of compounds 12, 15 and 18, respectively. The brain tissues were collected” for “collected”, “after administration of compounds 2 and 5,” for “after administration,”

Setting [5] is: grades, read-out: PARP-1 enzyme activity IC50.
The mark [6] stands for this setting: Homo sapiens, MDA-MB-436, 168 h.
Setting [7] is: Homo sapiens, 10 μM, MDA-MB-436 cells.

Where two headings read alike, the source gives them in different places.

Sequence of PARP-1 enzyme (P09874 whole entry): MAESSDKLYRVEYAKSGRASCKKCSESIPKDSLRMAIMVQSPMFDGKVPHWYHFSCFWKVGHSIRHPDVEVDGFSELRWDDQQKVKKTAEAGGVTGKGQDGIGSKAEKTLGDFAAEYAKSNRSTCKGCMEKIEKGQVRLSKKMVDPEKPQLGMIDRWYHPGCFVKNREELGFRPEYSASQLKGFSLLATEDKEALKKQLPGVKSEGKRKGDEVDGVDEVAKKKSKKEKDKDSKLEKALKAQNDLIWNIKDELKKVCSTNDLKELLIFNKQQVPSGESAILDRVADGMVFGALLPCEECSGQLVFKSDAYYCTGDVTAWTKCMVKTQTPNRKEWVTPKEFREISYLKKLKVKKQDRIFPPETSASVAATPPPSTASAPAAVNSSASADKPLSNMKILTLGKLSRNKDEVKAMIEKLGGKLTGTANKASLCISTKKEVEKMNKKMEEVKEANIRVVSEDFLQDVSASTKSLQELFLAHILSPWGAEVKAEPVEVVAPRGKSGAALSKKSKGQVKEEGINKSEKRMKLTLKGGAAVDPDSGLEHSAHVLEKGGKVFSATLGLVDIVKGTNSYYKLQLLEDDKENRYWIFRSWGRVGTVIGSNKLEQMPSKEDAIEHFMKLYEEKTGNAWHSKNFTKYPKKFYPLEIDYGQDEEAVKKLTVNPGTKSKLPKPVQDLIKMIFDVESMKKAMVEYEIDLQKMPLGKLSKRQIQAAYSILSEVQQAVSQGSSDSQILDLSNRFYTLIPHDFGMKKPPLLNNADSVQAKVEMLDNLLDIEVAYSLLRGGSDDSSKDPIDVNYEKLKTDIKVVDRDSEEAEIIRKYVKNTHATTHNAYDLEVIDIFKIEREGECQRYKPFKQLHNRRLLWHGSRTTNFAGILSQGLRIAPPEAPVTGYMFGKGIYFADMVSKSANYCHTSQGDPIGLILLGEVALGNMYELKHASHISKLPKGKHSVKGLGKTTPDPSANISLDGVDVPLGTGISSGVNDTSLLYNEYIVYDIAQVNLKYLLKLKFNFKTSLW

As for “1-(difluoromethyl)-N-(5-(4-((2-(difluoroethyl(-5-fluoro-3-oxo-3,4-dihydroquinoxalin-6-yl)methyl)piperazin-1-yl)-6-fluoropyridin-2-yl)-1H-pyrazole-4-carboxamide [Compound 17]”, the IC50 in data set [1] (setting [5]) is less than 5 nM; in data set [2] it was 19.4 nM. Also, the “Max inh. % 10 μM” value in data set [2] (10 μM, MDA-MB-436 cells) is on record as 72.33%.

In data set [2] (setting [6]), `Cn1cc(NC(=O)c2ccc(N3CCN(Cc4ccc5nc(C(F)F)c(=O)[nH]c5c4F)CC3)c(F)n2)cn1` [Compound 15] had an IC50 of 6.8 nM. Moreover, in data set [2] (setting [7]), the inhibition at 10 µM is 74.2%. In data set [3], the “pharmacokinetic characteristics in rats” value was “good pharmacokinetic characteristics” and the Kp at 24 h was found to be 0.916. Moreover, in data set [3] (iv, i.v. 2.5 mg/kg), the AUC(0-t) turned out to be 25800 ± 2870 ng·h/mL, the clearance was 1.63 ± 0.18 mL/min/kg and the Vd turned out to be 0.192 ± 0.022 L/kg. Further, in data set [3] (po, i.g. 10 mg/kg), the bioavailability turned out to be 87.2 ± 14% and the AUC(0-t) was found to be 89800 ± 14000 ng·h/mL. Further, the “pharmacokinetic characteristics in mice” value in data set [4] is “good pharmacokinetic characteristics”. In data set [4] (iv, i.v. 2.5 mg/kg), the AUC(0-t) came to 16300 ± 1740 ng·h/mL, the clearance was found to be 2.57 ± 0.29 mL/min/kg and the Vd stood at 0.342 ± 0.04 L/kg. Also, in data set [4] (po, i.g. 10 mg/kg), the bioavailability was no less than 98% and the AUC(0-t) is 67200 ng·h/mL.

Consider `Cc1nc2ccc(CN3CCN(c4ccc(C(=O)N[C@@H]5C[C@@H]5F)nc4F)CC3)c(F)c2[nH]c1=O` [Compound 4, 6-fluoro-5-(4-((5-fluoro-2-methyl-3-oxo-3,4-dihydroquinoxalin-6-yl)methyl)piperazin-1-yl)-N-((1R,2S)-2-fluorocyclopropyl)picolinamide], for which the IC50 in data set [1] (setting [5]) is less than 5 nM. In data set [2] (setting [6]), inhibition was half-maximal at 32.8 nM (IC50). In addition, in data set [2] (setting [7]), the inhibition at 10 µM worked out at 80.1%. In data set [3], the “pharmacokinetic characteristics in rats” value is “good pharmacokinetic characteristics” and the Kp at 24 h was found to be 0.315. Moreover, in data set [3] (iv, i.v. 2.5 mg/kg), the AUC(0-t) worked out at 7390 ± 663 ng·h/mL, the clearance turned out to be 5.36 ± 0.068 mL/min/kg and the Vd worked out at 1.13 ± 0.071 L/kg. In addition, in data set [3] (po, i.g. 10 mg/kg), the bioavailability is no less than 98% and the AUC(0-t) is 33400 ± 2670 ng·h/mL.

Consider `Cc1nc2ccc(CN3CC=C(c4ccc(C(=O)Nc5cnn(C)c5)nc4F)CC3)c(F)c2[nH]c1=O` [Compound 9, 2-fluoro-1′-((5-fluoro-2-methyl-3-oxo-3,4-dihydroquinoxalin-6-yl)methyl)-N-(1-methyl-1H-pyrazol-4-yl)-1′,2′,3′,6′-tetrahydro-[3,4′-bipyridine]-6-carboxamide], for which the IC50 in data set [2] (setting [6]) was determined as 1.5 nM. For the same molecule, the inhibition at 10 µM in data set [2] (setting [7]) was 84.4%.

On to `Cc1nc2ccc(CN3CCN(c4ccc(C(=O)N[C@H]5C[C@H]5F)nc4F)CC3)c(F)c2[nH]c1=O` [Compound 5, 6-fluoro-5-(4-((5-fluoro-2-methyl-3-oxo-3,4-dihydroquinoxalin-6-yl)methyl)piperazin-1-yl)-N-((1S,2R)-2-fluorocyclopropyl)picolinamide], for which, in data set [1] (setting [5]), the half-inhibitory concentration (IC50) was less than 5 nM. The molecule also returned an IC50 in data set [2] (setting [6]) of 28 nM. In addition, the inhibition at 10 µM in data set [2] (setting [7]) came to 79.8%. For the same molecule, in data set [4], the “pharmacokinetic characteristics in mice” value is listed as “good pharmacokinetic characteristics” and the Kp at 24 h came to 0.911. Moreover, in data set [4] (iv, i.v. 2.5 mg/kg), the AUC(0-t) was 2750 ± 212 ng·h/mL, the clearance stood at 15.2 ± 1.1 mL/min/kg and the Vd stood at 2.85 ± 0.23 L/kg. In data set [4] (po, i.g. 10 mg/kg), this molecule gave a bioavailability of no less than 98% and an AUC(0-t) of 12700 ± 817 ng·h/mL.

For the molecule `Cn1cc(C(=O)Nc2ccc(N3CCN(Cc4ccc5nc(C(F)F)c(=O)[nH]c5c4F)CC3)c(F)n2)c(F)n1` [Compound 18, N-(5-(4-((2-(difluoromethyl)-5-fluoro-3-oxo-3,4-dihydroquinoxalin-6-yl)methyl)piperazin-1-yl)-6-fluoropyridin-2-yl)-3-fluoro-1-methyl-1H-pyrazole-4-carboxamide], the IC50 in data set [1] (setting [5]) was less than 5 nM. Further, in data set [3], the “pharmacokinetic characteristics in rats” value is reported as “good pharmacokinetic characteristics”. In addition, in data set [3] (iv, i.v. 2.5 mg/kg), the AUC(0-t) is 22000 ± 838 ng·h/mL, the clearance came to 1.9 ± 0.071 mL/min/kg and the Vd is 0.294 ± 0.011 L/kg. In data set [3] (po, i.g. 10 mg/kg), this molecule returned a bioavailability of no less than 98% and an AUC(0-t) of 87600 ± 11700 ng·h/mL. Also, in data set [4], the “pharmacokinetic characteristics in mice” value is “good pharmacokinetic characteristics”. Moreover, in data set [4] (iv, i.v. 2.5 mg/kg), the AUC(0-t) came out at 8150 ± 811 ng·h/mL, the clearance came out at 5.14 ± 0.53 mL/min/kg and the Vd is 0.582 ± 0.029 L/kg. Besides, in data set [4] (po, i.g. 10 mg/kg), the bioavailability is no less than 98% and the AUC(0-t) came out at 32300 ng·h/mL.

Turning to `Cc1nc2ccc(CN3CCN(c4ccc(C(=O)Nc5cnn(C)c5)nc4F)CC3)c(F)c2[nH]c1=O` [Compound 2, 6-fluoro-5-(4-((5-fluoro-2-methyl-3-oxo-3,4-dihydroquinoxalin-6-yl)methyl)piperazin-1-yl)-N-(1-methyl-1H-pyrazol-4-yl)picolinamide], the IC50 in data set [1] (setting [5]) is less than 5 nM. Moreover, in data set [1] (read-out: IC50 value on PARP-1), the IC50 stood at 0.79 nM. This molecule had an IC50 in data set [2] (setting [6]) of 3.5 nM. In addition, the inhibition at 10 µM in data set [2] (setting [7]) was determined as 86%. In addition, in data set [4], the “pharmacokinetic characteristics in mice” value is listed as “good pharmacokinetic characteristics” and the Kp at 24 h was 5.23. Further, in data set [4] (iv, i.v. 2.5 mg/kg), the AUC(0-t) is 1870 ± 154 ng·h/mL, the clearance stood at 21.6 ± 1.3 mL/min/kg and the Vd worked out at 2.09 ± 0.52 L/kg. Further, in data set [4] (po, i.g. 10 mg/kg), the bioavailability stood at 97.4% and the AUC(0-t) stood at 7270 ± 793 ng·h/mL.
